According to patent publication US20130189185A1, “Boron-Based Dual Imaging Probes, Compositions and Methods for Rapid Aqueous F-18 Labeling, and Imaging Methods Using Same” (UNIVERSITY OF SOUTHERN CALIFORNIA, priority 2011, published 2013):

Key:
[1] = Ex vivo fluorescence and microPET imaging of dissected organs; assay type: in vivo, nude mouse; details: organs harvested after microPET scan 4 h post injection
Text: The dual modality operation of the probe was confirmed. To this end, the animal was euthanized and selected organs harvested for ex vivo fluorescence and microPET imaging (FIG. 4). The fluorescence images were obtained by irradiation of the organs at λ=500 nm. This wavelength was chosen because it falls within the absorption band of [2-F]^+ (see Supporting Information). The fluorescence image was reconstructed based on the emission intensity measured at λ=580±20 nm, a wavelength which is within the fluorescence band of [2-F]^+ (see Supporting Information).
(§1) Obvious bone uptake even at 3 h post injection was not observed, which is consistent with the reported high stability of BODIPY dyes. Next, the dual modality potential of the probe was confirmed. The animal was euthanized and liver, kidneys and muscle were harvested for ex vivo PET/fluorescence imaging. […] We also sectioned the kidney and observed the BODIPY fluorescent signal under microscope.
To cross-evaluate the dual modality tracer ^18F-2-F, ex vivo fluorescence imaging was performed using a Lumina II small-animal imaging system (Xenogen, Alameda, Calif.). After the microPET imaging was done, the nude mouse was sacrificed. […] Fluorescent images were acquired and analyzed using Living Image 2.5 software (Xenogen). The fluorescence images were acquired using a 2-s exposure time (f-stop 4).

[2] = In vivo microPET imaging of normal nude mice; details: judged from imaging results
Protocol: The stability of the resulting ^18F—B compound is critical as free [^18F]-fluoride ions could bind to the bones giving rise to unwanted and interfering background signals.^14 The stability of compound [^18F]-[2-F]^+ was first studied in PBS buffer at pH 7.5 over a period of several hours. […] In order to validate the approach for in vivo PET imaging, [^18F]-[2-F]^+ (prepared via the aqueous route) was injected into normal nude mice that were imaged using a microPET scanner 1 h, 2 h, and 4 h post injection. […] Thus, although probe compound [^18F]-[2-F]^+ lacks any specific targeting functionalities, its accumulation in these organs constitutes a normal phenomenon, in line with its hydrophobic and cationic nature.
as §1
The nude mice were imaged using a microPET R4 rodent model scanner (Concorde Microsystems, Knoxyille, Tenn.) in the prone position. The mice were injected with 50-80 μCi of [^18F]-[2-F]^+ via the tail vein. […]

Compound: CC1=CC(C)=[N+]2C1=C(c1ccc([N+](C)(C)C)cc1)c1c(C)cc(C)n1[B-]2(F)c1ccccc1 (stereo not drawn) [[2-F]^+]
- uptake in heart, representative bones and muscles, ex vivo [1]: minimal uptake
- accumulation of the probe in organs, ex vivo microPET and fluorescence ([1]; excitation 500 nm, emission 580±20 nm): accumulation of the probe in the liver and kidneys
- stability in vivo [2]: stable in vivo
